Reference: patent US20100324067A1, “TETRACYCLIC DIPYRANO-COUMARIN COMPOUNDS WITH ANTI-HIV AND ANTI-MYCOBACTERIUM TUBERCULOSIS ACTIVITIES” (priority 2007, published 2010)
Values after ≈ are worked out from the molar mass of the structure shown. Where two headings read alike, the source gives them in different places.

Key:
[1] = tested on: Mycobacterium tuberculosis H37Rv (ATCC 27294); test: Microplate Alamar Blue Assay (MABA) in BACTEC 12B medium (TAACF screen); type: cell-based; conditions: for IC50: read-out: IC50
[2] = read-out: anti-TB active compound (MIC90 less than 10 μg/mL), classification

| Compound | IC50 ([1]; MABA, H37Rv) [µg/mL] | MIC90 ([1]; MABA, H37Rv, read-out: MIC90) [µg/mL] | melting point [°C] | MIC50 ([1]; control compound) [µg/mL] | MIC90 ([1]; control compound, read-out: Avg MIC90) [µg/mL] | MIC90 [1, 2] [µg/mL] |
| --- | --- | --- | --- | --- | --- | --- |
| CC1CC(=O)c2c(cc3oc(=O)cc(-c4ccccc4)c3c2O)O1 (centres unmarked) [Example 5b-21, benzo[1,2-b:5,4-b′]-dipyranyl-5-hydroxyl-8-methyl-4-phenyl-2,6-dione] | 14.9 (≈ 46.1 µM) | 21.3 (≈ 66.1 µM) | – | – | – | – |
| CCCc1cc(=O)oc2cc3c(c(O)c12)C(=O)CC(C)O3 (centres unmarked) [Example 5b-11, benzo[1,2-b:3,4-b′]-dipyranyl-5-hydroxyl-4-n-propyl-8-methyl-2,6-dione] | 95.3 (≈ 330 µM) | > 100 | – | – | – | – |
| CCCc1cc(=O)oc2c3c(cc(O)c12)OC(CCC)CC3=O (centres unmarked) [Example 5a-14, benzo[1,2-b:3,4-b′]-dipyranyl-5-hydroxyl-4,8-di-n-propyl-2,10-dione] | 60.2 (≈ 190 µM) | 85.8 (≈ 271 µM) | – | – | – | – |
| Cc1c(Cl)c(=O)oc2cc3c(c(O)c12)C(=O)CC(C)O3 (centres unmarked) [Example 5b-3, benzo[1,2-b:3,4-b′]-dipyranyl-5-hydroxyl-4,8-dimethyl-3-chloro-2,6-dione] | 90.5 (≈ 307 µM) | > 100 | – | – | – | – |
| CC1CC(=O)c2c(cc(O)c3c(CCC(F)(F)F)cc(=O)oc23)O1 (centres unmarked) [Example 5a-71, benzo[1,2-b:3,4-b′]-dipyranyl-5-hydroxyl-8-methyl-4-((3,3′,3″-trifluoro)-n-propyl)-2,10-dione] | 15.4 (≈ 45.1 µM) | 29.9 (≈ 87.4 µM) | – | – | – | – |
| CCCc1c(F)c(=O)oc2c3c(c4c(c12)OC(CC)C=C4)OC(C)CC3=O (centres unmarked) [Example 56, 10-methyl-4-n-propyl-6-ethyl-3-fluoro-2H,6H,12H-benzo[1,2-b:3,4-b′:5,6-b″]-tripyrany 1-2,12-dione] | 62.3 (≈ 167 µM) | > 100 | 147 to 149 | – | – | – |
| NCC[C@H](O)C(=O)N[C@@H]1C[C@H](N)[C@@H](O[C@H]2O[C@H](CN)[C@@H](O)[C@H](O)[C@H]2O)[C@H](O)[C@H]1O[C@H]1O[C@H](CO)[C@@H](O)[C@H](N)[C@H]1O [Amikacin, reference compound] | – | – | – | 0.09 (≈ 0.154 µM) | 0.12 (≈ 0.205 µM) | – |
| CC1CC(=O)c2c(c3c(c4c(-c5ccccc5)cc(=O)oc24)OC(C)(C)C=C3)O1 (centres unmarked) [Example 21] | 16.6 (≈ 42.8 µM) | > 100 | – | – | – | – |
| CC1CC(=O)c2c(cc(O)c3c4c(c(=O)oc23)CCCC4)O1 (centres unmarked) [Example 5a-27, benzo[1,2-b:3,4-b′]-dipyranyl-5-hydroxyl-8-methyl-3,4-cyclohexyl-2,0-dione] | 94.3 (≈ 314 µM) | > 100 | – | – | – | – |
| CCCc1cc(=O)oc2c3c(c4c(c12)OC(C)(C)C=C4)OC(CN1CCCCC1)CC3=O (centres unmarked) | – | – | 154 to 155 | – | – | – |
| CCCc1cc(=O)oc2c(-c3cccn3C(C)C)c(O)c3c(c12)OC(C)(C)C=C3 | – | – | 161 to 162 | – | – | – |
| CCCc1c(Cl)c(=O)oc2c3c(c4c(c12)OC(CC)C=C4)OC(C)CC3=O (centres unmarked) [Example 54, 10-methyl-4-n-propyl-6-ethyl-3-chloro-2H,6H,12H-benzo[1,2-b:3,4-b′:5,6-b″]-tripyranyl-2,12-dione] | 36.5 (≈ 93.9 µM) | 61.8 (≈ 159 µM) | 145 to 147 | – | – | – |
| CCCc1cc(=S)oc2c3c(c4c(c12)OC(C)(C)C=C4)OC(C)CC3=O (centres unmarked) | – | – | 139 to 141 | – | – | – |
| C/C=C/C1C=Cc2c3c(c4oc(=O)cc(CCC)c4c2O1)C(=O)CC(C)O3 (centres unmarked) [Example 85, 4-n-propyl-6-propenyl-1-methyl-2H,6H,12H-benzo[1,2-b:3,4-b′:5,6-b″]-tripyranyl-2,12-dione] | 2.08 (≈ 5.68 µM) | 4.86 (≈ 13.3 µM) | 136 to 138 | – | – | < 10 |
| CCc1c(F)c(=O)oc2c3c(c4c(c12)OCC(C)=C4)OC(C)CC3=O (centres unmarked) [Example 93, 4-ethyl-3-fluoro-7,10-dimethyl-2H,6H,12H-benzo[1,2-b:3,4-b′:5,6-b″]-tripyranyl-2,12-dione] | 76.2 (≈ 221 µM) | > 100 | 118 to 120 | – | – | – |
| CCCC1C=Cc2c3c(c4oc(=O)c(F)c(CC)c4c2O1)C(=O)CC(C)O3 (centres unmarked) [Example 39, 10-methyl-4-ethyl-6-n-propyl-3-fluoro-2H,6H,12H-benzo[1,2-b:3,4-b′:5,6-b″]-tripyranyl-2,12-dione] | 5.09 (≈ 13.7 µM) | 9.94 (≈ 26.7 µM) | 151 to 153 | – | – | < 10 |
| CCc1cc(=O)oc2c3c(c4c(c12)OC(CC)C=C4)OC(C)CC3=O (centres unmarked) [Example 53, 10-methyl-4,6-diethyl-2H,6H,12H-benzo[1,2-b:3,4-b′:5,6-b″]-tripyranyl-2,12-dione] | 6.1 (≈ 17.9 µM) | 6.85 (≈ 20.1 µM) | 129 to 131 | – | – | < 10 |
| CC1CC(=O)c2c(c3c(c4c(-c5cc(F)c(Cl)nc5Cl)cc(=O)oc24)OC(C)(C)C=C3)O1 (centres unmarked) [Example 25] | 2.86 (≈ 6 µM) | 3.9 (≈ 8.18 µM) | 158 to 160 | – | – | < 10 |
| CCc1cc(=O)oc2c3c(c4c(c12)OCC(C)=C4)OC(C)CC3=O (centres unmarked) | – | – | 121 to 123 | – | – | – |
| CC1CC(=O)c2c(c3c(c4c(CCl)cc(=O)oc24)OC(C)(C)C=C3)O1 (centres unmarked) | – | – | 132 to 134 | – | – | – |
| CCCc1cc(=O)oc2c(-c3cccn3Cc3ccco3)c(O)c3c(c12)OC(C)(C)C=C3 | – | – | 157 to 159 | – | – | – |
| CCCc1c(F)c(=O)oc2c3c(cc(O)c12)OC(C)CC3=O (centres unmarked) [Example 5a-31, benzo[1,2-b:3,4-b′]-dipyranyl-5-hydroxyl-8-methyl-3-fluoro-4-n-propyl-2,10-dione] | 17 (≈ 55.5 µM) | 23.5 (≈ 76.6 µM) | – | – | – | – |
| CCCc1cc(=O)oc2cc3c(c(O)c12)C(=O)CC(c1ccccc1)O3 (centres unmarked) [Example 5b-16, benzo[1,2-b:3,4-b′]-dipyranyl-5-hydroxyl-8-phenyl-2,6-dione] | 4.31 (≈ 12.3 µM) | 5.41 (≈ 15.4 µM) | – | – | – | < 10 |
| CCCc1cc(=O)oc2c3c(c4c(c12)OCC(C)=C4)OC(C)CC3=O (centres unmarked) | – | – | 127 to 128 | – | – | – |
